Laboratory results from patent publication US20090149412A1, “Method for Inhibition of Phospholamban Activity for the Treatment of Cardiac Disease and Heart Failure” (THE REGENTS OF THE UNIVERSITY OF CALIFORNIA, priority 1999, published 2009).
Values joined by “and” are separate entries in the source; they are usually repeats but may differ in a detail not shown here. Identical values can stand only once.

Key:
Type in all cases: cell-based
PLB protein = assay: Western blot quantification of PLB protein content in myocytes infected with adenovirus transgenes; conditions: normalized to a-actin, compared with adenovirus/SR control lacking the transgene
Excerpt: FIG. 6a is a Western blot analysis of myocytes containing the adenovirus transgenes expressing sense PLB (sPLB), antisense PLB (asPLB), E2A, R14E, S16N, and K3E/R14E against monoclonal PLB. FIG. 6b is a Western blot showing the results of cell infectivity by PLB, sPLB and K3E/R14E. FIG. 6c illustrates the Western blot analysis of PLB infectivity of So18 cells.
Additional Western blot analysis of myocytes containing the adenovirus transgenes expressing sense PLB (sPLB), antisense PLB (asPLB), E2A, R14E, S1.6N, and K3E/R14E against monoclonal PLB antibody (Affinity BioReagents) is shown in FIG. 6a. […] In contrast, asPLB and S16N results in 54% and 33% decrease in PLB protein content within the myocytes. The introduction of K3E/R14E transgene infection of myocytes leads to a formation of a distinct pattern of pentamer PLB. Multiple PLB bands appear in addition to PLB5 (the pentamer).

[1] = tested on: isolated mouse cardiomyocytes; assay: Contraction cycle of isolated mouse cardiomyocytes with penetratin-PLB peptide; conditions: 10 μM peptide; for Maximum Contract. / Minimum Contract.: arbitrary unit of length, single samples 1-7 and Mean; for Relax. Slope: control mean 0.9814
Excerpt: Cell level studies were done to evaluate the ability of two penetratin-based peptides, two mutant PLB-penetratin peptides, and two multiple antigen peptides (MAP) to strengthen the contraction cycle of isolated mouse cardiomyocytes. The two penetratin-based peptides include PLB-ANT (Seq. ID. No. 10) and TAT-PLB (Seq. ID. No. 11) each of which have a 20 residue portion of the PLB sequence attached to either the 5′ end of ANT (Seq. ID. No. 14) or the 3′ end of TAT (Seq. ID. No. 15). The two mutant PLB peptides, mutant PLB-ANT (Seq. ID. No. 12) and TAT-mutant PLB (Seq. ID No. 13), display a S16E mutation of the 20 residue PLB sequence. The multiple antigen peptides include MAP with 8 penetratin (ANT) domains and MAP with 4 penetratin domains and 4 PLB domains.
Each of the penetratin-PLB peptides were evaluated to measure their ability to strengthen the contraction cycle of isolated mouse cardiomyocytes, the idea being that the penetratin-PLB peptide would act as a dominant negative inhibitor of the PLE3-SERCA2a interaction.
Measurements were taken every 20 milliseconds, and the unit of length was arbitrary, but was generally on the order of one complete cell length. Percent contraction was calculated as (maximum length minus minimum length) divided by maximum length. A plot of time versus length generated a U-shaped curve from which the most linear segments were selected, with the left side of the “U” representing contraction and the right side representing relaxation.

SR Ca2+ transport = assay: Radioactive Ca2+ transport assay (SR Ca2+ transport); conditions: adenoviral vector expressing contractilin, rat cardiomyocytes
Protocol: The amplified and purified hypervariable region RNA is then fused to a single cDNA (Seq. ID. No. 9) and subsequently cloned in frame into a plasmid vector, coding for a phage surface protein. Using standard phage display technique, phages which express the immune library of the chicken are selected by their positive response to the PLB peptide. After a series of enrichment for phages which specifically bind PLB, 20 clones are selected for ELISA. The resulting 5 best binders are then analyzed using a radioactive Ca^2+ transport assay. The two best activators of SR Ca^2+ transport are further analyzed. Both clones are found to dramatically stimulate the rate of Ca^2+ transport into the SR.

R14E: adenoviral single point mutation of PLB, Seq. ID. No. 4 (MEKVQYLTRSAIREASTIEMPQQARQKLQNLFINFCLILICLLLICIIVMLL; adenoviral vector; listed as Homo sapiens)
increase in PLB protein level (PLB protein): 57%

TAT-PLB: 20 residue portion of the PLB sequence attached to the 3′ end of TAT, Seq. ID. No. 11 (GGGGYGRKKRRQRRRMEKVQYLTRSAIRRASTIEM; listed as Homo sapiens)
effect on myocyte contraction (overall) ([1]; T-test, no statistical difference): trend towards a larger, faster contraction | Maximum Contract. [1]: 112.57 and 109.68 and 133.82 and 81.61 and 74.423 and 126.89 and 133.61 | Minimum Contract. [1]: 101.17 and 102.00 and 116.32 and 67.871 and 64.629 and 108.38 and 128.21 | Maximum Contract. ([1]; mean): 110.373 | Minimum Contract. ([1]; mean): 98.363 | Relax. Slope [1]: 0.9925 and 0.9790 and 0.9878 and 0.9697 and 0.9933 and 0.9939 and 0.9959 | Relax. Slope ([1]; mean): 0.9874

E2A: adenoviral single point mutation of PLB, Seq. ID. No. 3 (MAKVQYLTRSAIRRASTIEMPQQARQKLQNLFINFCLILICLLLICIIVMLL; adenoviral vector; listed as Homo sapiens)
increase in PLB protein level (PLB protein): 72%

B1: contractilin: recombinant protein from chicken polyclonal PLB antibody hypervariable regions, expressed from adenoviral vector (Seq. ID. No. 9) (protein, listed as Homo sapiens)
chain: MHHHHHHVAQAALTHSSSVSANPGETVKITCSGGGNYAGSYYYGWFQQKSPGSAPVTVIYSNDQRPSNIPSRFSGSTSGSTSTLTITGVRAEDEAVYFCGSNSGTGYVGIFGAGTTLTVLGQSSRSSTVTLDESGGGLQTPGGALSLVCRASGFTFSRFHMMWVRQAPGKGLEWVAGIDDGGSFTLYGAAVKGRATILRDNGQSTVRLQLDNLRPEDTATYFCVKTKCGGNGWCGADRIDAWGHGTEVIVSSTSGQAGQYPYDVPDYAS
cytoplasmic Ca2+ removal (SR Ca2+ transport): accelerates cytoplasmic Ca^2+ removal
